Data from US11926626B2, “Heterocyclic GLP-1 agonists” (Gasherbrum Bio, Inc., priority 2020, dated 2024).

What follows are compounds tested against GLP-1 Receptor (Homo sapiens, UniProt P43220) (assay: GLP-1R agonist cAMP stimulation assay (HEK293/GLP1R/CRE-Luc cells, HTRF cAMP)). Conditions: not given.
Format: cell-based
Experimental: Activation of GLP-1 receptor is known to stimulate cyclic AMP (cAMP) production in cells which indicates primary coupling to the Gαs subunit of the G protein heterotrimeric complex.
To optimize functional activity directed toward Gαs coupling, a HEK293/CRE-Luc cell line developed by HDB stably expressing the GLP-1 Receptor was used. […] 1×10^5 cells/mL HEK293/GLP1R/CRE-LUC(HD Biosciences) cell suspensions prepared with assay buffer[DPBS containing 0.5 mM IBMX (Sigma, Cat #I5879) and 0.1% BSA (GENVIEW, Cat #FA016-100g)], 10 uL cell suspensions were added to each well of previous generated assay plate which already contains 50 nl compound at 200×concentration using ThermoFisher Multidrop Combi (1000 cells/well). Seal the plate and incubate at 37° C. with 5% CO2 for 30 min.
After incubation the cAMP assay signal was generated using cAMP dynamic 2 Kit (Cisbio). 5 μL cAMP-d2 working solution was added to each well, followed with 5 μL Anti-cAMP antibody-cryptate working solution added to each well using ThermoFisher Multidrop Combi. Incubate at room temperature for 1 hour protected from light.

GLP-1 Receptor, sequence (P43220 24-463): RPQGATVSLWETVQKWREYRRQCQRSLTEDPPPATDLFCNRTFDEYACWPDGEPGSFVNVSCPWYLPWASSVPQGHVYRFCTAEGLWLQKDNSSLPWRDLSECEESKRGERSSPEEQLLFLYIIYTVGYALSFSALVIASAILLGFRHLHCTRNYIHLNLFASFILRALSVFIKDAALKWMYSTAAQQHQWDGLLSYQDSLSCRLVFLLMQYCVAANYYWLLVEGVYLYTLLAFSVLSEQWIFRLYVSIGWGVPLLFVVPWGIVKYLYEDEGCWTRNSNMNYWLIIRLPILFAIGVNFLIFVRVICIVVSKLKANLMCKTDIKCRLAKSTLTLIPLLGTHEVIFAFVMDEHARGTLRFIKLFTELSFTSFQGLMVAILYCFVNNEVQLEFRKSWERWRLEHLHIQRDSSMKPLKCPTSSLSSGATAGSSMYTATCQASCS

In the case of CC(c1cccc(OC2CCN(Cc3nc4ccc(C(=O)O)nc4n3C[C@@H]3CCO3)CC2)n1)c1ccc(Cl)cc1F (stereo partly drawn) [Compound 128a, 2-{[4-({6-[1-(4-chloro-2-fluorophenyl)ethyl]pyridin-2-yl}oxy)piperidin-1-yl]methyl}-3-{[(2S)-oxetan-2-yl]methyl}-3H-imidazo[4,5-b]pyridine-5-carboxylic acid], the “GLP1R cAMP Stimulation DR: pEC50” value is reported as 8.9.

Same assay, conditions: 30 min, 37° C.

First: O=C(O)c1ccc2nc(CC3CCN(C(=O)c4cccc(Cc5ccc(Cl)cc5F)n4)CC3)n(C[C@@H]3CCO3)c2n1 [Compound 106a, (S)-2-((1-(6-(4-Chloro-2-fluorobenzyl)picolinoyl)piperidin-4-yl)methyl)-3-(oxetan-2-ylmethyl)-3H-imidazo[4,5-b]pyridine-5-carboxylic acid]
Second: O=C(O)c1ccc2nc(CN3CCC(c4cccc5nc(Cc6ccc(Cl)cc6F)oc45)CC3)n(C[C@@H]3CCO3)c2n1 [Compound 143a, (S)-2-((4-(2-(4-chloro-2-fluorobenzyl)benzo[d]oxazol-7-yl)piperidin-1-yl)methyl)-3-(oxetan-2-ylmethyl)-3H-imidazo[4,5-b]pyridine-5-carboxylic acid]
The “GLP1R cAMP Stimulation DR: pEC50” value of the first is lower: 6.33 for the first, 9.3 for the second.

CC(=O)Nc1ccc2nc(CN3CCC(Oc4cccc(Cc5ccc(Cl)cc5F)n4)CC3)n(C[C@@H]3CCO3)c2c1 [Compound 134a, N-(2-{[4-({6-[(4-chloro-2-fluorophenyl)methyl]pyridin-2-yl}oxy)piperidin-1-yl]methyl}-1-{[(2S)-oxetan-2-yl]methyl}-1H-1,3-benzodiazol-6-yl)acetamide] was tested, and the “GLP1R cAMP Stimulation DR: pEC50” value was 7.2.

Same assay, conditions: HEK293/CRE-Luc cells stably expressing GLP-1 Receptor; 30 min, 37° C.

First: O=C(O)c1ccc2nc(CN3CCC(Oc4nc(Cc5ccc(Cl)cc5F)ccc4F)CC3)n(C[C@@H]3CCO3)c2n1 [Compound 111a, 2-{[4-({6-[(4-chloro-2-fluorophenyl)methyl]-3-fluoropyridin-2-yl}oxy)piperidin-1-yl]methyl}-3-{[(2S)-oxetan-2-yl]methyl}-3H-imidazo[4,5-b]pyridine-5-carboxylic acid]
Second: O=C(O)c1ccc2nc(CN3CCC(Oc4nc(Cc5ccc(Cl)cc5F)ccc4Cl)CC3)n(C[C@@H]3CCO3)c2n1 [Compound 137a, 2-{[4-({3-chloro-6-[(4-chloro-2-fluorophenyl)methyl]pyridin-2-yl}oxy)piperidin-1-yl]methyl}-3-{[(2S)-oxetan-2-yl]methyl}-3H-imidazo[4,5-b]pyridine-5-carboxylic acid]
The “GLP1R cAMP Stimulation DR: pEC50” value of the first is higher: 9.5 for the first, 7.3 for the second.

First: O=C(O)c1ccc2nc(CN3CCC(Oc4ccnc(Cc5ccc(Cl)cc5F)n4)CC3)n(C[C@@H]3CCO3)c2n1 [Compound 113a, 2-{[4-({2-[(4-chloro-2-fluorophenyl)methyl]pyrimidin-4-yl}oxy)piperidin-1-yl]methyl}-3-{[(2S)-oxetan-2-yl]methyl}-3H-imidazo[4,5-b]pyridine-5-carboxylic acid]
Second: O=C(O)c1ccc2nc(CN3CCC(Oc4ccc(=O)n(Cc5ccc(Cl)cc5F)n4)CC3)n(C[C@@H]3CCO3)c2n1 [Compound 144a, 2-{[4-({1-[(4-chloro-2-fluorophenyl)methyl]-6-oxo-1,6-dihydropyridazin-3-yl}oxy)piperidin-1-yl]methyl}-3-{[(2S)-oxetan-2-yl]methyl}-3H-imidazo[4,5-b]pyridine-5-carboxylic acid]
The “GLP1R cAMP Stimulation DR: pEC50” value of the first is higher: 10.4 for the first, 8.3 for the second.

Compared with O=C(O)c1ccc2nc(CN3CCC(Oc4cc(Cc5ccc(Cl)cc5F)ccc4F)CC3)n(C[C@@H]3CCO3)c2n1 [Compound 114a, 2-[(4-{5-[(4-chloro-2-fluorophenyl)methyl]-2-fluorophenoxy}piperidin-1-yl)methyl]-3-{[(2S)-oxetan-2-yl]methyl}-3H-imidazo[4,5-b]pyridine-5-carboxylic acid], O=C(O)c1ccc2nc(CN3CCC(Oc4cccc(Cc5ccc(Cl)cc5F)n4)C3)n(C[C@@H]3CCO3)c2n1 (stereo partly drawn) [Compound 130a, 2-{[3-({6-[(4-chloro-2-fluorophenyl)methyl]pyridin-2-yl}oxy)pyrrolidin-1-yl]methyl}-3-{[(2S)-oxetan-2-yl]methyl}-3H-imidazo[4,5-b]pyridine-5-carboxylic acid] is lower in “GLP1R cAMP Stimulation DR: pEC50” value: 8.8 for the first, 7.3 for the second.

O=C(O)c1ccc2nc(CN3CCC(Oc4ccn(Cc5ccc(Cl)cc5F)n4)CC3)n(C[C@@H]3CCO3)c2c1 [Compound 116a, 2-{[4-({1-[(4-chloro-2-fluorophenyl)methyl]-1H-pyrazol-3-yl}oxy)piperidin-1-yl]methyl}-1-{[(2S)-oxetan-2-yl]methyl}-1H-1,3-benzodiazole-6-carboxylic acid] and N#Cc1ccc(Cc2cccc(OC3CCN(Cc4nc5ccc(C(=O)O)cc5n4C[C@@H]4CCO4)CC3)n2)c(F)c1 [Compound 135a, 2-{[4-({6-[(4-cyano-2-fluorophenyl)methyl]pyridin-2-yl}oxy)piperidin-1-yl]methyl}-1-{[(2S)-oxetan-2-yl]methyl}-1H-1,3-benzodiazole-6-carboxylic acid] are within 0.2 log units of each other in “GLP1R cAMP Stimulation DR: pEC50” value: 8.6 for the first, 8.7 for the second.

First: O=C(O)c1ccc2nc(CN3CCC(Cc4cccc(Oc5ccc(Cl)cc5F)n4)CC3)n(C[C@@H]3CCO3)c2n1 [Compound 121a, 2-[(4-{[6-(4-chloro-2-fluorophenoxy)pyridin-2-yl]methyl}piperidin-1-yl)methyl]-3-{[(2S)-oxetan-2-yl]methyl}-3H-imidazo[4,5-b]pyridine-5-carboxylic acid]
Second: O=C(O)c1ccc2nc(CN3CCC(Oc4cccc(Cc5ccc(Cl)cc5)n4)CC3)n(C[C@@H]3CCO3)c2n1 [Compound 124a, (S)-2-((4-((6-(4-chlorobenzyl)pyridin-2-yl)oxy)piperidin-1-yl)methyl)-3-(oxetan-2-ylmethyl)-3H-imidazo[4,5-b]pyridine-5-carboxylic acid]
The “GLP1R cAMP Stimulation DR: pEC50” value of the first is lower: 8.2 for the first, 10.4 for the second.

Going from O=C(O)c1ccc2nc(CN3CCC(Oc4cccc(Cc5cccc(Cl)c5)n4)CC3)n(C[C@@H]3CCO3)c2n1 [Compound 125a, (S)-2-((4-((6-(3-chlorobenzyl)pyridin-2-yl)oxy)piperidin-1-yl)methyl)-3-(oxetan-2-ylmethyl)-3H-imidazo[4,5-b]pyridine-5-carboxylic acid] to O=C(O)c1ccc2nc(CN3CCC(Oc4cccc(Cc5ccc(C6CC6)cc5)n4)CC3)n(C[C@@H]3CCO3)c2n1 [Compound 146a, 2-{[4-({6-[(4-cyclopropylphenyl)methyl]pyridin-2-yl}oxy)piperidin-1-yl]methyl}-3-{[(2S)-oxetan-2-yl]methyl}-3H-imidazo[4,5-b]pyridine-5-carboxylic acid], the “GLP1R cAMP Stimulation DR: pEC50” value rises from 8.9 to 9.2.

Compared with Cc1cn(Cc2ccc(Cl)cc2F)nc1OC1CCN(Cc2nc3ccc(C(=O)O)nc3n2C[C@@H]2CCO2)CC1 [Compound 133a, 2-{[4-({1-[(4-chloro-2-fluorophenyl)methyl]-4-methyl-1H-pyrazol-3-yl}oxy)piperidin-1-yl]methyl}-3-{[(2S)-oxetan-2-yl]methyl}-3H-imidazo[4,5-b]pyridine-5-carboxylic acid], O=C(O)c1ccc2nc(CN3CCC(c4cccc5cn(Cc6ccc(Cl)cc6F)nc45)CC3)n(C[C@@H]3CCO3)c2n1 [Compound 142a, (S)-2-((4-(2-(4-chloro-2-fluorobenzyl)-2H-indazol-7-yl)piperidin-1-yl)methyl)-3-(oxetan-2-ylmethyl)-3H-imidazo[4,5-b]pyridine-5-carboxylic acid] is higher in “GLP1R cAMP Stimulation DR: pEC50” value: 8.6 for the first, 8.8 for the second.

Compared with N#Cc1ccc(Cc2cccc(OC3CCN(Cc4nc5ccc(C(=O)O)nc5n4C[C@@H]4CCO4)CC3)n2)c(F)c1 [Compound 136a, 2-{[4-({6-[(4-cyano-2-fluorophenyl)methyl]pyridin-2-yl}oxy)piperidin-1-yl]methyl}-3-{[(2S)-oxetan-2-yl]methyl}-3H-imidazo[4,5-b]pyridine-5-carboxylic acid], O=C(O)c1ccc2nc(CN3CCC(Oc4cccc(Cc5ccc(C(F)(F)F)cc5)n4)CC3)n(C[C@@H]3CCO3)c2n1 [Compound 145a, 3-{[(2S)-oxetan-2-yl]methyl}-2-({4-[(6-{[4-(trifluoromethyl)phenyl]methyl}pyridin-2-yl)oxy]piperidin-1-yl}methyl)-3H-imidazo[4,5-b]pyridine-5-carboxylic acid] is lower in “GLP1R cAMP Stimulation DR: pEC50” value: 9.4 for the first, 8.5 for the second.

In the case of O=C(O)c1ccc2nc(CN3CCC(n4ccc5ccc(Cc6ccc(Cl)cc6F)nc54)CC3)n(C[C@@H]3CCO3)c2n1 [Compound 140a, 2-[(4-{6-[(4-chloro-2-fluorophenyl)methyl]-1H-pyrrolo[2,3-b]pyridin-1-yl}piperidin-1-yl)methyl]-3-{[(2S)-oxetan-2-yl]methyl}-3H-imidazo[4,5-b]pyridine-5-carboxylic acid], the “GLP1R cAMP Stimulation DR: pEC50” value is reported as 8.9.

Same assay, conditions: HEK293/CRE-Luc cells stably expressing GLP-1 Receptor; 30 min, 37° C.; read-out: GLP1R cAMP Stimulation DR: EC50

Cc1ccc(OC2CCN(Cc3nc4ccc(C(=O)O)nc4n3CC3CCO3)CC2)nc1Cc1ccc(Cl)cc1F (stereo in doubt) [Compound 169a, 2-{[4-({6-[(4-chloro-2-fluorophenyl)methyl]-5-methylpyridin-2-yl}oxy)piperidin-1-yl]methyl}-3-{[(2S)-oxetan-2-yl]methyl}-3H-imidazo[4,5-b]pyridine-5-carboxylic acid] showed an EC50 of 80 nM.
